In US8466089B2, “Pyrazole compounds, process for their production and herbicides containing them” (Ishihara Sangyo Kaisha, Ltd., priority 2008, dated 2013):
Like-named read-outs stand apart in the source and are kept apart here.

How the values were obtained:
Type in all cases: in vivo
[1] = test system: velvetleaf (Abutilon theophrasti MEDIC.); assay: Test Example 1, foliar treatment in upland pots; conditions: 20th to 22nd day after application, visual, read-out: Growth inhibition rate (%) Velvetleaf
Source text: (§1) Upland field soil was put into a 1/170,000 hectare pot, and seeds of various plants were sown. When the respective plants reached predetermined leaf stage ((1) barnyardgrass (Echinochloa crus-galli L.): 1.2 to 3.0 leaf stage, (2) crabgrass (Digitaria sanguinalis L.): 1.0 to 3.0 leaf stage, (3) green foxtail (Setaria viridis L.): 1.5 to 3.0 leaf stage, (4) redroot pigweed (Amaranthus retroflexus L.): cotyledon stage to 1.5 leaf stage, (5) prickly sida (Sida spinosa L.): cotyledon stage to 2.0 leaf stage, (6) velvetleaf (Abutilon theophrasti MEDIC.): cotyledon stage to 1.3 leaf stage, (7) rice (Oryza sativa L.): 1.2 to 2.5 leaf stage, (8) corn (Zea mays L.): 2.0 to 3.3 leaf stage, (9) soybean (Glycine max Merr.): primary leaf stage to 0.3 leaf stage) and wheat (Triticum spp.): 2.0 to 3.0 leaf stage, wettable powders or emulsifiable concentrates of the compounds of the present invention prepared in accordance with a conventional preparation method, were weighed so that the active ingredients became the prescribed amounts, and diluted with water in an amount corresponding to 500 liter per 1 hectare (containing 0.1 vol % of an agricultural spreader (“KUSARINOH”, manufactured by NIHON NOHYAKU CO., LTD.)). The spray solutions thus prepared were applied for foliar treatment by a small sprayer.
(§2) On the 20th to 22nd day after application, the state of growth of the respective plants was visually observed, and the herbicidal effect was evaluated by a growth inhibition rate (%) of 0 (equivalent to the non-treated area) to 100% (complete kill).

[2] = test system: soybean (Glycine max Merr.); assay: Test Example 1, foliar treatment in upland pots; conditions: 20th to 22nd day after application, visual, read-out: Growth inhibition rate (%) Soybean
Source text: as §1, §2

[3] = test system: prickly sida (Sida spinosa L.); assay: Test Example 1, foliar treatment in upland pots; conditions: 20th to 22nd day after application, visual, read-out: Growth inhibition rate (%) Prickly sida
Source text: as §1, §2

rice (Oryza sativa L.) [4] = assay: Test Example 1, foliar treatment in upland pots; conditions: 20th to 22nd day after application, visual, read-out: Growth inhibition rate (%) Rice
Source text: as §1, §2

[5] = test system: redroot pigweed (Amaranthus retroflexus L.); assay: Test Example 1, foliar treatment in upland pots; conditions: 20th to 22nd day after application, visual, read-out: Growth inhibition rate (%) Redroot pigweed
Source text: as §1, §2

[6] = test system: crabgrass (Digitaria sanguinalis L.); assay: Test Example 1, foliar treatment in upland pots; conditions: 20th to 22nd day after application, visual, read-out: Growth inhibition rate (%) Crabgrass
Source text: as §1, §2

[7] = test system: barnyardgrass (Echinochloa crus-galli L.); assay: Test Example 1, foliar treatment in upland pots; conditions: 20th to 22nd day after application, visual, read-out: Growth inhibition rate (%) Barnyardgrass
Source text: as §1, §2

corn (Zea mays L.) [8] = assay: Test Example 1, foliar treatment in upland pots; conditions: 20th to 22nd day after application, visual, read-out: Growth inhibition rate (%) Corn
Source text: as §1, §2

wheat (Triticum spp.) [9] = assay: Test Example 1, foliar treatment in upland pots; conditions: 20th to 22nd day after application, visual, read-out: Growth inhibition rate (%) Wheat
Source text: as §1, §2

[10] = test system: green foxtail (Setaria viridis L.); assay: Test Example 1, foliar treatment in upland pots; conditions: 20th to 22nd day after application, visual, read-out: Growth inhibition rate (%) Green foxtail
Source text: as §1, §2

[11] = test system: rice (Oryza sativa L.) (var.: Nihonbare); assay: Test Example 3, paddy field pot, transplanted rice; conditions: applied 4th day after transplantation, 20th to 23rd day after application, read-out: Growth inhibition rate (%) Rice
Source text: (§3) Paddy field soil was put into a 1/1,000,000 hectare pot, and seeds of barnyardgrass (Echinochloa oryzicola vasing.) and Japanese bulrush (Scirpus juncoides) were sown and lightly covered with soil. Then, pot was left to stand in a greenhouse in a state irrigated to a water depth of from 0.5 to 1 cm, and next day or two days later, tubers of Japanese ribbon waparo (Sagittaria pygmaea) were planted. Then, the irrigated water depth was maintained to be from 3 to 4 cm, and when barnyardgrass and Japanese bulrush reached 0.5 leaf stage, and Japanese ribbon waparo reached primary leaf stage, a water diluted solution of a wettable powder or an emulsifiable concentrate of the compound of the present invention prepared in accordance with a conventional preparation method, was uniformly dropwise applied by a pipette so that the amount of active ingredients would be a prescribed amount. Further, paddy field soil was put into a 1/1,000,000 pot, followed by soil puddling to an irrigated water depth of from 3 to 4 cm. Next day, rice (Oryza sativa L.) (var.: Nihonbare) of two leaf stage was transplanted in a transplantation depth of 3 cm. On the 4th day after transplantation, the compound of the present invention was applied in the same manner as described above.
(§4) On the 13th to 17th day after application, the state of growth of barnyardgrass, Japanese bulrush and Japanese ribbon waparo was visually observed, and on the 20th to 23rd day after application, the state of growth of rice was visually observed, and the herbicidal effect was evaluated by a growth inhibition rate (%) of 0 (equivalent to the non-treated area) to 100% (complete kill).

[12] = test system: barnyardgrass (Echinochloa oryzicola vasing.); assay: Test Example 3, paddy field pot, application to irrigated water; conditions: applied at 0.5 leaf stage, 13th to 17th day after application, read-out: Growth inhibition rate (%) barnyard grass
Source text: as §3, §4

[13] = test system: Japanese bulrush (Scirpus juncoides); assay: as above; conditions: Schoenoplectiella juncoides, applied at 0.5 leaf stage, 13th to 17th day after application, read-out: Growth inhibition rate (%) Japanese bulrush
Source text: as §3, §4

[14] = test system: velvetleaf (Abutilon theophrasti MEDIC.); assay: Test Example 2, soil application on the day after sowing; conditions: 21st to 22nd day after application, visual, read-out: Growth inhibition rate (%) Velvetleaf
Source text: (§5) Upland field soil was put into a 1/170,000 hectare pot, and seeds of various plants (barnyardgrass (Echinochloa crus-galli L.), crabgrass (Digitaria sanquinalis L.), green foxtail (Setaria viridis L.), redroot pigweed (Amaranthus retroflexus L.), prickly sida (Sida spinosa L.), velvetleaf (Abutilon theophrasti MEDIC.), rice (Oryza sativa L.), corn (Zea mays L.), soybean (Glycine max Merr.)) and wheat (Triticum spp.) were sown. On the day after sowing, wettable powders or emulsifiable concentrates of the compounds of the present invention prepared in accordance with a conventional preparation method, were weighed so that the active ingredients became the prescribed amounts, and diluted with water in an amount corresponding to 500 liter per 1 hectare, followed by soil application with a small sprayer.
(§6) On the 21st to 22nd day after the application, the state of growth of the respective plants was visually observed, and the herbicidal effect was evaluated by a growth inhibition rate (%) of from 0 (equivalent to the non-treated area) to 100% (complete kill).

[15] = test system: crabgrass (Digitaria sanquinalis L.); assay: as above; conditions: 21st to 22nd day after application, visual, read-out: Growth inhibition rate (%) Crabgrass
Source text: as §5, §6

[16] = test system: prickly sida (Sida spinosa L.); assay: as above; conditions: 21st to 22nd day after application, visual, read-out: Growth inhibition rate (%) Prickly sida
Source text: as §5, §6

rice (Oryza sativa L.) [17] = assay: as above; conditions: 21st to 22nd day after application, visual, read-out: Growth inhibition rate (%) Rice
Source text: as §5, §6

[18] = test system: redroot pigweed (Amaranthus retroflexus L.); assay: as above; conditions: 21st to 22nd day after application, visual, read-out: Growth inhibition rate (%) Redroot pigweed
Source text: as §5, §6

[19] = test system: barnyardgrass (Echinochloa crus-galli L.); assay: as above; conditions: 21st to 22nd day after application, visual, read-out: Growth inhibition rate (%) Barnyardgrass
Source text: as §5, §6

corn (Zea mays L.) [20] = assay: as above; conditions: 21st to 22nd day after application, visual, read-out: Growth inhibition rate (%) Corn
Source text: as §5, §6

wheat (Triticum spp.) [21] = assay: as above; conditions: 21st to 22nd day after application, visual, read-out: Growth inhibition rate (%) Wheat
Source text: as §5, §6

[22] = test system: green foxtail (Setaria viridis L.); assay: as above; conditions: 21st to 22nd day after application, visual, read-out: Growth inhibition rate (%) Green foxtail
Source text: as §5, §6

[23] = test system: velvetleaf (Abutilon theophrasti MEDIC.); assay: Test Example 5, foliar treatment versus Reference Compounds; conditions: 3.0 to 3.5 leaf stage, 20th day after application, read-out: Growth inhibition rate (%) (20th day after application) Velvet leaf
Source text: (§7) Upland field soil was put into a 1/1,000,000 hectare pot, and seeds of various plants were sown. When the respective plants reached predetermined leaf stage ((1) velvetleaf (Abutilon theophrasti MEDIC.): 3.0 to 3.5 leaf stage, (2) giant foxtail (Setaria faberi Herrm.): 4.0 to 4.5 leaf stage, (3) green foxtail (Setaria viridis L.): 5.0 to 5.5 leaf stage, and (4) corn (Zea mays L.): 4.0 to 4.3 leaf stage, a wettable powder of compound No. 2-1 of the above-mentioned present invention, a wettable powder of the above-mentioned Reference Compound 1 and a wettable powder of the above-mentioned Reference Compound 2, prepared in accordance with a conventional preparation method, were weighed so that the active ingredients became the prescribed amounts, and diluted with water in an amount corresponding to 300 liter per 1 hectare (containing 0.5 vol % of an agricultural spreader (Destiny HC: WINFIELD SOLUTIONS by LLC). The spray solutions thus prepared were applied for foliar treatment by a small sprayer.
(§8) On the 7th to 20th day after application, the state of growth of the respective plants was visually observed, and the herbicidal effect was evaluated by a growth inhibition rate (%) of 0 (equivalent to the non-treated area) to 100% (complete kill).

[24] = test system: giant foxtail (Setaria faberi Herrm.); assay: as above; conditions: 4.0 to 4.5 leaf stage, 20th day after application, read-out: Growth inhibition rate (%) (20th day after application) Giant foxtail
Source text: as §7, §8

[25] = test system: green foxtail (Setaria viridis L.); assay: as above; conditions: 5.0 to 5.5 leaf stage, 18th day after application, read-out: Growth inhibition rate (%) (18th day after application) Green foxtail
Source text: as §7, §8

[26] = test system: sorgo (Sorghum bicolor Moench) (var.: Lucky Sorgo); assay: Test Example 6, soil column downward movement, sorgo bioassay; conditions: 14th day after sowing
Procedure: Soil (sterilized soil:sand=3:1) was packed (4 L) into a column (9.5 cm in diameter×40 cm in height, application area: 0.007 m^2), and tap water was dropped from above by a Peristaltic pump before application of the herbicide for the purpose of maintaining the soil moisture to be uniform. Then, 10 mL of a spray solution prepared so that each agent (Compound No. 2-1, the above Reference Compounds 1 and 2) would be at a concentration corresponding to 250 g/ha was dropwise applied by a pipette. After application, water was dropped again at a rate of 400 mL/hr for about 3 hours by means of a Peristaltic pump. After the dropping, the column was left to stand for 1 day, and then the column was vertically evenly divided and seeds of sorgo (Sorghum bicolor Moench) (var.: Lucky Sorgo) were sown in a row. On the 14th day after sowing, the state of growth of the plant was visually observed at 3 cm intervals from the application point of the agent, whereby the germination and the degree of growth were evaluated by a growth inhibition rate (%) of 0 (equivalent to the non-treated area) to 100% (complete kill) to obtain the results in Table 17.
From the above results, the growth inhibition rates of Reference Compounds No. 1 and No. 2 are observed in depths deeper than that of Compound No. 2-1. […] Whereas, Compound No. 2-1 stayed at a shallow portion of soil (in a layer of from 0 to 9 cm).

COCCOc1c(S(C)(=O)=O)ccc(C(=O)c2c(C)nn(C(C)C)c2O)c1C [Compound No. 8-2, (5-Hydroxy-1-isopropyl-3-methyl-1H-pyrazol-4-yl)(3-(2-methoxyethoxy)-2-methyl-4-(methylsulfonyl)phenyl)ketone]
inhibition at 7 g/ha [1]: 60% | inhibition at 7 g/ha [2]: 10% | inhibition at 7 g/ha [3]: 20% | inhibition at 7 g/ha (rice (Oryza sativa L.) [4]): 0% | inhibition at 7 g/ha [5]: 60% | inhibition at 7 g/ha [6]: 40% | inhibition at 7 g/ha [7]: 20% | inhibition at 7 g/ha (corn (Zea mays L.) [8]): 0% | inhibition at 7 g/ha (wheat (Triticum spp.) [9]): 0% | inhibition at 7 g/ha [10]: 50% | inhibition at 63 g/ha [11]: 10% | inhibition at 63 g/ha [12]: 40% | inhibition at 63 g/ha [13]: 70% | inhibition at 250 g/ha [14]: 70% | inhibition at 250 g/ha [15]: 100% | inhibition at 250 g/ha [16]: 60% | inhibition at 250 g/ha (rice (Oryza sativa L.) [17]): 100% | inhibition at 250 g/ha [18]: 100% | inhibition at 250 g/ha [19]: 100% | inhibition at 250 g/ha (corn (Zea mays L.) [20]): 60% | inhibition at 250 g/ha (wheat (Triticum spp.) [21]): 20% | inhibition at 250 g/ha [22]: 100%

CCn1ncc(C(=O)c2ccc(S(C)(=O)=O)c(OCCOC)c2Cl)c1O [Reference Compound 1]
inhibition at 3.5 g/ha [23]: 45% | inhibition at 3.5 g/ha [24]: 30% | inhibition at 7 g/ha [25]: 40% | inhibition at 250 g/ha ([26]; depth 0-3 cm, read-out: Growth inhibition rate (%) against sorgo, Depth (cm) from the applied surface 0-3): 58% | inhibition at 250 g/ha ([26]; depth 3-6 cm, read-out: Growth inhibition rate (%) against sorgo, Depth (cm) from the applied surface 3-6): 58% | inhibition at 250 g/ha ([26]; depth 6-9 cm, read-out: Growth inhibition rate (%) against sorgo, Depth (cm) from the applied surface 6-9): 58% | inhibition at 250 g/ha ([26]; depth 9-12 cm, read-out: Growth inhibition rate (%) against sorgo, Depth (cm) from the applied surface 9-12): 60% | inhibition at 250 g/ha ([26]; depth 12-15 cm, read-out: Growth inhibition rate (%) against sorgo, Depth (cm) from the applied surface 12-15): 53% | inhibition at 250 g/ha ([26]; depth 15-18 cm, read-out: Growth inhibition rate (%) against sorgo, Depth (cm) from the applied surface 15-18): 35% | inhibition at 250 g/ha ([26]; depth 18-21 cm, read-out: Growth inhibition rate (%) against sorgo, Depth (cm) from the applied surface 18-21): 28% | inhibition at 250 g/ha ([26]; depth 21-24 cm, read-out: Growth inhibition rate (%) against sorgo, Depth (cm) from the applied surface 21-24): 30% | inhibition at 250 g/ha ([26]; depth 24-27 cm, read-out: Growth inhibition rate (%) against sorgo, Depth (cm) from the applied surface 24-27): 28% | inhibition at 250 g/ha ([26]; depth 27-30 cm, read-out: Growth inhibition rate (%) against sorgo, Depth (cm) from the applied surface 27-30): 15%
